From publication PMC8745314, “Novel Tetrazole-Based Antimicrobial Agents Targeting Clinical Bacteria Strains: Exploring the Inhibition of Staphylococcus aureus DNA Topoisomerase IV and Gyrase” (International Journal of Molecular Sciences, 2021) come the findings set out here.

SMILES strings stand for the structures. Converted amounts (≈) assume the structure as drawn. A value given as a limit tells only on which side of the number the result lay.

Holding throughout (experiment): MIC broth microdilution, standard strain
Common to all, as to assay type: cell-based
(In broth dilution the organism is exposed to a series of concentrations in liquid medium.)

For one assay, the system named is S. aureus ATCC 29213. The following applies: Staphylococcus aureus, ATCC29213; S. aureus ATCC 29213, standard strain, 19 h at 35 °C; read-out: minimal inhibitory concentration (MIC). As to the method:
(§1) All synthesized compounds were tested in vitro against a set of bacteria, including representative standard Gram-positive and Gram-negative rods. Compounds were screened for their minimal inhibitory concentrations (MICs). […] The antimicrobial assays were conducted using reference strains of bacteria derived from international microbe collections: American Type Culture Collection (ATCC) and National Collection of Type Culture (NCTC). The following standard strains of bacteria were used: Gram-positive-Staphylococcus aureus NCTC 4163, Staphylococcus aureus ATCC 25923, Staphylococcus aureus ATCC 6538, Staphylococcus aureus ATCC 29213, Staphylococcus epidermidis ATCC 12228, Staphylococcus epidermidis ATCC 35984, Gram-negative: Escherichia coli ATCC 25922, Pseudomonas aeruginosa ATCC 15442. Clinical strains of bacteria used in this study: Gram-positive: Staphylococcus epidermidis 5253, Staphylococcus epidermidis 4243, Staphylococcus aureus […], Staphylococcus aureus […] and Gram-negative: Escherichia coli 520, Escherichia coli 600, Klebsiella pneumoniae 510 and Pseudomonas aeruginosa 659 were obtained from the collection of the Department of Pharmaceutical Microbiology, Medical University of Warsaw, Poland and they were isolated from different biological materials taken from the patients hospitalized in the Warsaw Medical University hospitals. […] MIC was determined by the two-fold serial broth microdilution method in 96-well microtitration plates using Mueller-Hinton II broth medium (Becton Dickinson, Franklin Lakes, NJ, USA). The final inoculum of all studied bacteria was 10^6 CFU/mL (colony forming unit per milliliter). The stock solution of tested compounds was prepared in dimethyl sulfoxide (DMSO) and diluted to a maximum of 1% of solvent content with a sterile medium.

The test system of another assay is S. aureus ATCC 6538. The following applies: Staphylococcus aureus, ATCC6538; S. aureus ATCC 6538, standard strain, 19 h at 35 °C; read-out: minimal inhibitory concentration (MIC). As to the method:
as §1

Assay [1] deals with S. epidermidis ATCC 12228. The following applies: Staphylococcus epidermidis, ATCC12228; S. epidermidis ATCC 12228, standard strain, 19 h at 35 °C; read-out: minimal inhibitory concentration (MIC). As for the experimental part:
as §1

Assay [2] has as its system S. epidermidis ATCC 35984. The following applies: Staphylococcus epidermidis, ATCC35984; S. epidermidis ATCC 35984, standard strain, 19 h at 35 °C; read-out: minimal inhibitory concentration (MIC). As to the method:
as §1

The subject of a further assay is E. coli ATCC 25922. The following applies: Escherichia coli, ATCC25922; E. coli ATCC 25922, standard strain, 19 h at 35 °C; read-out: minimal inhibitory concentration (MIC). As to the method: (§2) All synthesized compounds were tested in vitro against a set of bacteria, including representative standard Gram-positive and Gram-negative rods. Compounds were screened for their minimal inhibitory concentrations (MICs). […] These three compounds were also found to be good inhibitors of the growth of Gram-negative rods: […] The antimicrobial assays were conducted using reference strains of bacteria derived from international microbe collections: American Type Culture Collection (ATCC) and National Collection of Type Culture (NCTC). The following standard strains of bacteria were used: Gram-positive-Staphylococcus aureus NCTC 4163, Staphylococcus aureus ATCC 25923, Staphylococcus aureus ATCC 6538, Staphylococcus aureus ATCC 29213, Staphylococcus epidermidis ATCC 12228, Staphylococcus epidermidis ATCC 35984, Gram-negative: Escherichia coli ATCC 25922, Pseudomonas aeruginosa ATCC 15442. Clinical strains of bacteria used in this study: Gram-positive: Staphylococcus epidermidis 5253, Staphylococcus epidermidis 4243, Staphylococcus aureus […], Staphylococcus aureus […] and Gram-negative: Escherichia coli 520, Escherichia coli 600, Klebsiella pneumoniae 510 and Pseudomonas aeruginosa 659 were obtained from the collection of the Department of Pharmaceutical Microbiology, Medical University of Warsaw, Poland and they were isolated from different biological materials taken from the patients hospitalized in the Warsaw Medical University hospitals. Antimicrobial activity was examined by the minimal inhibitory concentration (MIC) method under standard procedures provided by CLSI with some modifications. MIC was determined by the two-fold serial broth microdilution method in 96-well microtitration plates using Mueller-Hinton II broth medium (Becton Dickinson, Franklin Lakes, NJ, USA). The final inoculum of all studied bacteria was 10^6 CFU/mL (colony forming unit per milliliter). The stock solution of tested compounds was prepared in dimethyl sulfoxide (DMSO) and diluted to a maximum of 1% of solvent content with a sterile medium.

For a further assay, the system named is P. aeruginosa ATCC 15442. The following applies: Pseudomonas aeruginosa, ATCC15442; P. aeruginosa ATCC 15442, standard strain, 19 h at 35 °C; read-out: minimal inhibitory concentration (MIC). As to the method: as §2
A further assay has as its system S. aureus ATCC 25923. The following applies: Staphylococcus aureus, ATCC25923; S. aureus ATCC 25923, standard strain, 19 h at 35 °C; read-out: minimal inhibitory concentration (MIC). As for the experimental part:
as §2

For a further assay, the system named is S. aureus NCTC 4163. The following applies: Staphylococcus aureus, NCTC4163; S. aureus NCTC 4163, standard strain, 19 h at 35 °C; read-out: minimal inhibitory concentration (MIC). As to the method:
as §2

As for `CC1=C(C)C2(C)CC1(C)C1C(=O)N(Nc3nnnn3-c3cccc(C(F)(F)F)c3)C(=O)C12` (stereo not shown) [Compound 1, 4,5,6,7-Tetramethyl-2-((1-(3-(trifluoromethyl)phenyl)-1H-tetrazol-5-yl)amino)-3a,4,7,7a-tetrahydro-1H-4,7-methanoisoindole-1,3(2H)-dione], the MIC in the assay with S. aureus ATCC 29213 came out at 0.2 µg/mL (≈ 0.448 µM); in the assay on S. aureus ATCC 6538, 0.2 µg/mL (≈ 0.448 µM); in assay [1], 3.2 µg/mL (≈ 7.17 µM); in assay [2] it was 0.2 µg/mL (≈ 0.448 µM); with E. coli ATCC 25922, 0.4 µg/mL (≈ 0.896 µM); in the assay on P. aeruginosa ATCC 15442, 12.8 µg/mL (≈ 28.7 µM). Also, the MIC in the assay on S. aureus ATCC 25923 and in the assay with S. aureus NCTC 4163 was 0.2 µg/mL (≈ 0.448 µM) in each case.

Consider `CC(C)C12C=CC(C)(CC1)C1C(=O)N(Nc3nnnn3-c3ccc([N+](=O)[O-])cc3)C(=O)C12` (stereo not shown) [Compound 8, 4-Isopropyl-7-methyl-2-((1-(4-nitrophenyl)-1H-tetrazol-5-yl)amino)-3a,4,7,7a-tetrahydro-1H-4,7-ethanoisoindole-1,3(2H)-dione], for which the MIC was 8 µg/mL (≈ 18.3 µM) in the assay with S. aureus ATCC 29213; 8 µg/mL (≈ 18.3 µM) in the assay with S. aureus ATCC 6538; 16 µg/mL (≈ 36.6 µM) in assay [1]; 16 µg/mL (≈ 36.6 µM) in assay [2]; greater than 256 µg/mL in the assay with E. coli ATCC 25922; greater than 256 µg/mL in the assay with P. aeruginosa ATCC 15442. The MIC in the assay with S. aureus ATCC 25923 and in the assay on S. aureus NCTC 4163 was 8 µg/mL (≈ 18.3 µM) each time.

As to `CC1=C(C)C2(C)CC1(C)C1C(=O)N(Nc3nnnn3-c3ccc([N+](=O)[O-])cc3)C(=O)C12` (stereo not shown) [Compound 4, 4,5,6,7-Tetramethyl-2-((1-(4-nitrophenyl)-1H-tetrazol-5-yl)amino)-3a,4,7,7a-tetrahydro-1H-4,7-methanoisoindole-1,3(2H)-dione], the MIC in the assay with S. aureus ATCC 29213 is 16 µg/mL (≈ 37.8 µM); in the assay with S. aureus ATCC 6538, 32 µg/mL (≈ 75.6 µM); in assay [1], 32 µg/mL (≈ 75.6 µM); in assay [2], 32 µg/mL (≈ 75.6 µM); in the assay with E. coli ATCC 25922, 256 µg/mL (≈ 605 µM); with P. aeruginosa ATCC 15442, greater than 256 µg/mL. The MIC in the assay with S. aureus ATCC 25923 was found to be 8 µg/mL (≈ 18.9 µM); in the assay with S. aureus NCTC 4163 it was 16 µg/mL (≈ 37.8 µM).

As to `CC1=C(C)C2(C)CC1(C)C1C(=O)N(Nc3nnnn3-c3ccccc3)C(=O)C12` (stereo not shown) [Compound 6, 4,5,6,7-Tetramethyl-2-((1-phenyl-1H-tetrazol-5-yl)amino)-3a,4,7,7a-tetrahydro-1H-4,7-methanoisoindole-1,3(2H)-dione], the MIC in the assay with S. aureus ATCC 29213 was 4 µg/mL (≈ 10.6 µM); with S. aureus ATCC 6538, 2 µg/mL (≈ 5.28 µM); in assay [1], 16 µg/mL (≈ 42.3 µM); in assay [2] it was 4 µg/mL (≈ 10.6 µM); in the assay with E. coli ATCC 25922, 8 µg/mL (≈ 21.1 µM); with P. aeruginosa ATCC 15442, greater than 256 µg/mL. The MIC in the assay with S. aureus ATCC 25923 and in the assay with S. aureus NCTC 4163 was 2 µg/mL (≈ 5.28 µM) each time.

With `CC1=C(C)C2(C)CC1(C)C1C(=O)N(Nc3nnnn3-c3ccccc3Cl)C(=O)C12` (stereo not shown) [Compound 2, 2-((1-(2-Chlorophenyl)-1H-tetrazol-5-yl)amino)-4,5,6,7-tetramethyl-3a,4,7,7a-tetrahydro-1H-4,7-methanoisoindole-1,3(2H)-dione], the MIC in the assay on S. aureus ATCC 29213 came out at 0.8 µg/mL (≈ 1.94 µM); with S. aureus ATCC 6538 it was 0.4 µg/mL (≈ 0.969 µM); in assay [1] it was 3.2 µg/mL (≈ 7.75 µM); in assay [2], 0.4 µg/mL (≈ 0.969 µM); in the assay on E. coli ATCC 25922 it was 1.6 µg/mL (≈ 3.88 µM); with P. aeruginosa ATCC 15442 it was 25.6 µg/mL (≈ 62 µM). Moreover, the MIC in the assay on S. aureus ATCC 25923 and in the assay on S. aureus NCTC 4163 was 0.4 µg/mL (≈ 0.969 µM) each time.

As to `Cc1ccc(-n2nnnc2NN2C(=O)C3C(C2=O)C2(C(C)C)C=CC3(C)CC2)cc1` (stereo not shown) [Compound 10, 4-Isopropyl-7-methyl-2-((1-(p-tolyl)-1H-tetrazol-5-yl)amino)-3a,4,7,7a-tetrahydro-1H-4,7-ethanoisoindole-1,3(2H)-dione], the MIC in the assay on S. aureus ATCC 29213 is 8 µg/mL (≈ 19.7 µM); in the assay with S. aureus ATCC 6538, 4 µg/mL (≈ 9.84 µM); in assay [1], 32 µg/mL (≈ 78.7 µM); in assay [2] it was 8 µg/mL (≈ 19.7 µM); in the assay on E. coli ATCC 25922, 16 µg/mL (≈ 39.4 µM); in the assay on P. aeruginosa ATCC 15442, greater than 256 µg/mL. The MIC with S. aureus ATCC 25923 and with S. aureus NCTC 4163 was 4 µg/mL (≈ 9.84 µM) throughout.

With `CC1=C(C)C2(C)CC1(C)C1C(=O)N(Nc3nnnn3-c3ccccc3Br)C(=O)C12` (stereo not shown) [Compound 3, 2-((1-(2-Bromophenyl)-1H-tetrazol-5-yl)amino)-4,5,6,7-tetramethyl-3a,4,7,7a-tetrahydro-1H-4,7-methanoisoindole-1,3(2H)-dione], the MIC was 0.2 µg/mL (≈ 0.437 µM) with S. aureus ATCC 29213; 0.2 µg/mL (≈ 0.437 µM) in the assay on S. aureus ATCC 6538; 2 µg/mL (≈ 4.37 µM) in assay [1]; 0.2 µg/mL (≈ 0.437 µM) in assay [2]; 0.4 µg/mL (≈ 0.875 µM) with E. coli ATCC 25922; 16 µg/mL (≈ 35 µM) in the assay with P. aeruginosa ATCC 15442. Also, the MIC in the assay with S. aureus ATCC 25923 and in the assay on S. aureus NCTC 4163 was 0.1 µg/mL (≈ 0.219 µM) throughout.

With `CC(C)C12C=CC(C)(CC1)C1C(=O)N(Nc3nnnn3-c3ccccc3Br)C(=O)C12` (stereo not shown) [Compound 9, 2-((1-(2-Bromophenyl)-1H-tetrazol-5-yl)amino)-4-isopropyl-7-methyl-3a,4,7,7a-tetrahydro-1H-4,7-ethanoisoindole-1,3(2H)-dione], the MIC with S. aureus ATCC 29213 was 64 µg/mL (≈ 136 µM); in the assay with S. aureus ATCC 6538 it was 64 µg/mL (≈ 136 µM); in assay [1], 128 µg/mL (≈ 272 µM); in assay [2], 64 µg/mL (≈ 136 µM); in the assay with E. coli ATCC 25922, 128 µg/mL (≈ 272 µM); in the assay with P. aeruginosa ATCC 15442, greater than 256 µg/mL. For the same compound, the MIC with S. aureus ATCC 25923 and with S. aureus NCTC 4163 was 64 µg/mL (≈ 136 µM) in each case.
